Reference: publication PMC9500072, “Topical application of an irreversible small molecule inhibitor of lysyl oxidases ameliorates skin scarring and fibrosis” (Nature Communications, 2022)
Read-outs that look alike come from different tables or passages of the source.

Tests used:
recombinant human LOXL3 = molecular target: T1, recombinant human LOXL3 (Homo sapiens, UniProt P58215); assay: Amplex Red oxidation assay, LOXL3 inhibition; format: biochemical
T1 construct: purchased R&D Systems
T1 sequence (P58215 26-753): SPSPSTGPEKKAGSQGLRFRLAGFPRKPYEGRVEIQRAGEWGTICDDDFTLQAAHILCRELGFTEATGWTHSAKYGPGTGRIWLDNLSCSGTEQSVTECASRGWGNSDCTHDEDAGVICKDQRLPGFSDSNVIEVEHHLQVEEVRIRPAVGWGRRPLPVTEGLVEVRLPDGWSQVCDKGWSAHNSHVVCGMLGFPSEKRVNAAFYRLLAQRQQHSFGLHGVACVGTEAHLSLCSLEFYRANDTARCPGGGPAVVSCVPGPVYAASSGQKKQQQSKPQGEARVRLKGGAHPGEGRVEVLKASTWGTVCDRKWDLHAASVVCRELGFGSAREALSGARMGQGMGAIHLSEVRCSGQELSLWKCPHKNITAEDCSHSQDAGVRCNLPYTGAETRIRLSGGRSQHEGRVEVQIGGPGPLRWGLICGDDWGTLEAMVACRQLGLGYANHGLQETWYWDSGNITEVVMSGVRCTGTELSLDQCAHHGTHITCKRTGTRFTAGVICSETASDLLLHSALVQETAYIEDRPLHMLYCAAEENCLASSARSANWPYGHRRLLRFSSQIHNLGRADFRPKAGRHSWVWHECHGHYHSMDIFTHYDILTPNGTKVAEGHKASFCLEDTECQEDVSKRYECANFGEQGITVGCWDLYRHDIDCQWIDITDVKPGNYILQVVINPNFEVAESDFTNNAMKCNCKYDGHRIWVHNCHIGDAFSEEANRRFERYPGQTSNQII
Method: The measurement of the enzymatic activity of all lysyl oxidase family members was based on the detection of hydrogen peroxide with an Amplex-Red oxidation assay, as previously described; miniaturized in 384 well formats, with the appropriate combination of substrate and assay buffer for each individual enzyme. After a 30 min pre-incubation of the enzyme at 37 °C with the test compound (or with different incubation times for the time-dependency assay), one volume of reaction mixture containing 120 μM Amplex Red (AR) (Life Technologies), 1.5 U/mL horseradish peroxidase (HRP) (Sigma-Aldrich) and the specific substrate was added to each sample. The relative fluorescence units (RFU) were then measured every 2.5 min for 30 min at 37 °C, excitation 565 nm and emission 590, on a BMG Clariostar Microplate Reader. All the substrates were used at concentrations corresponding to their Km towards the corresponding enzyme, or with a range of different concentrations for the substrate competition experiments.
Lysyl oxidases assay buffer contained 1.2 M urea, 50 mM sodium borate buffer, pH 8.2 and 100 µM β-aminoproprionitrile (BAPN, Sigma-Aldrich) was used for low control.
Recombinant human LOXL1 was expressed and purified from cDNA (GeneArt) and 10 mM putrescine was used as substrate. Recombinant human and mouse LOXL2 (R&D Systems) were challenged with 5 mM putrescine (Sigma-Aldrich) as the substrate. Rat and dog recombinant LOXL2 were amplified and purified in house from HEK-293 clones kindly provided by Dr. Fernando Rodríguez Pascual, Madrid University, and used in the same conditions as for the human form. 2 mM putrescine was used as the substrate for recombinant human LOXL3 (R&D Systems) and LOXL4 (Dr. Fernando Rodríguez Pascual, university of Madrid, Spain) assays.

Dog Recombinant LOXL2 = molecular target: T2, Dog Recombinant LOXL2 (Canis lupus familiaris, UniProt A0A8I3P9Y5); assay: Amine oxidase inhibition profile, dog LOXL2; format: biochemical
T2 construct: made in house; host or cells: HEK-293 clones (provided by Dr. Fernando Rodríguez Pascual)
T2 sequence (A0A8I3P9Y5 1-777): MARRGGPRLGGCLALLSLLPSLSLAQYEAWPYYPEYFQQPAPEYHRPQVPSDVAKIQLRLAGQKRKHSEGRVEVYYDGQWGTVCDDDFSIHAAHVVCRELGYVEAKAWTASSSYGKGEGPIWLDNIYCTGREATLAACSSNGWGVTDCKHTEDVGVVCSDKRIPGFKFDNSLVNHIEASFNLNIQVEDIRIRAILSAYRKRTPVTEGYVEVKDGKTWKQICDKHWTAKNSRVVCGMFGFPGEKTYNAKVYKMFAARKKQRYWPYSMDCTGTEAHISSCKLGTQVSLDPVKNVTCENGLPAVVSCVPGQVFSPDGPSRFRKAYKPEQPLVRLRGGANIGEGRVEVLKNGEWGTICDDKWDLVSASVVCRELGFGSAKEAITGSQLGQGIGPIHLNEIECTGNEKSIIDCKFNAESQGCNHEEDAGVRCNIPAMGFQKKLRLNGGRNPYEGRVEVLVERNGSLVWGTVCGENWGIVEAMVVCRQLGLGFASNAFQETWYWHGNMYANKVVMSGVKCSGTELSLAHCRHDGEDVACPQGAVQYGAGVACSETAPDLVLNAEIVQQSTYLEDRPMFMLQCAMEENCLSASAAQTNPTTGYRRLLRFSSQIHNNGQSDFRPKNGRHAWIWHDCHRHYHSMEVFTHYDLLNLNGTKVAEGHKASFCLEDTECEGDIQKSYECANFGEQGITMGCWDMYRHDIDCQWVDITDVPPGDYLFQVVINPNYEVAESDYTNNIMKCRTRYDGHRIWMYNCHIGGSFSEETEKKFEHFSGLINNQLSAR

[1] = 30 min pre-incubation, read-out: rh LOXL3 IC50
[2] = read-out: Human Recombinant LOXL3 pIC50±SD (converted)

Row | SMILES | Human Recombinant LOXL3 pIC50±SD (recombinant human LOXL3) | IC50 (recombinant human LOXL3; [1]) | Dog Recombinant LOXL2 pIC50±SD (Dog Recombinant LOXL2) | IC50 (Dog Recombinant LOXL2) | inhibition at 30 µM (recombinant human LOXL3; log conc -4.5229, read-out: Fig 2A inhibition (mean)) | inhibition at 10 µM (recombinant human LOXL3; log conc -5, read-out: Fig 2A inhibition (mean)) | inhibition at 3.333 µM (recombinant human LOXL3; log conc -5.4771, read-out: Fig 2A inhibition (mean)) | inhibition at 1.111 µM (recombinant human LOXL3; log conc -5.9542, read-out: Fig 2A inhibition (mean)) | inhibition at 0.3704 µM (recombinant human LOXL3; log conc -6.4313, read-out: Fig 2A inhibition (mean)) | inhibition at 0.1235 µM (recombinant human LOXL3; log conc -6.9083, read-out: Fig 2A inhibition (mean)) | inhibition at 0.0412 µM (recombinant human LOXL3; log conc -7.3851, read-out: Fig 2A inhibition (mean)) | inhibition at 0.0137 µM (recombinant human LOXL3; log conc -7.8633, read-out: Fig 2A inhibition (mean)) | inhibition at 0.0046 µM (recombinant human LOXL3; log conc -8.3372, read-out: Fig 2A inhibition (mean)) | inhibition at […] (recombinant human LOXL3; log conc -8.8239, read-out: Fig 2A inhibition (mean)) | inhibition at 0.0005 µM (recombinant human LOXL3; log conc -9.301, read-out: Fig 2A inhibition (mean)) | IC50 (recombinant human LOXL3; [2])
1 | N#CCCN [BAPN, β-aminoproprionitrile, reference compound] | 6.3 ± 0.1 | 510 nM | 6.3 ± 0.1 | 480 nM | – | – | – | – | – | – | – | – | – | – | – | –
2 | NC/C=C(\F)CS(=O)(=O)c1ccccc1 [PXS-4787] | – | 1420 nM | – | 620 nM | 99.7% | 94.8% | 75.7% | 41.8% | 18.9% | 6.04% | -0.564% | 1.57% | -2.27% | -2.78% | -0.598% | 1260 nM
3 | NC/C=C(\F)C(F)(F)S(=O)(=O)c1ccccc1 [PXS-6302] | – | 1540 nM | – | 340 nM | – | – | – | – | – | – | – | – | – | – | – | 1580 nM
